From patent US20120095024A1, “TOLUIDINE SULFONAMIDES AND THEIR USE” (Elara Pharmaceuticals GmbH, priority 2008, published 2012) come the findings set out here.

The test deals with MCF7 cells. Description: Cell proliferation assay (ATPlite), MCF-7. The class given is cell-based, human. The note with it: inhibition of cell proliferation, 72 h. As to the method:
MCF-7 human breast adenocarcinoma cells and HL-60 acute promyelocytic leukaemia cells were obtained from ATCC (LGC Promochem). HG-1 multiple myeloma cells were obtained from Dr. D. Hose (DKFZ Heidelberg). The CellSensor® HRE-bla HCT116 cell line (colorectal carcinoma) was obtained from Invitrogen.
Cells were grown under humidified 95% air, 5% CO2 at 37° C. in Dulbecco's modified Eagle's medium (DMEM: MCF-7) or RPMI 1640 medium (RPMI: HL-60, HG-1) supplemented with 10% fetal bovine serum (FBS), 100 U/ml penicillin and 100 μg/ml streptomycin, 2 mM L-glutamine, and 2 ng/ml IL-6 (for the HG-1 cell line only). The HCT116 cell line was grown under the same atmospheric conditions in McCoy's 5A medium supplemented with 10% FBS and penicillin/streptomycin as above, in addition to blasticidin as a selection marker at a final concentration of 5 μg/ml.
Cell proliferation experiments were carried out in 96-well tissue culture plates with seeding of 2000 cells/well (MCF-7) or 1000 cells/well (HL-60, HG-1) in 100 μl of the relevant medium. Cells were subsequently incubated under the conditions mentioned for 24 h prior to addition of compounds.
For the determination of compound EC50 values, 10 μl compounds at 11× concentrations in 5.5% DMSO were added to the wells at various concentrations yielding a final constant percentage of 0.5% DMSO at the desired 1× compound concentration. As a positive control, cells were treated with 5.5% DMSO. The cells were then incubated for a further 72 h prior to the measurement.
To determine the degree of inhibition of cell proliferation, cells were treated with ATPlite solution according to the manufacturer's instructions (PerkinElmer, ATPlite 1-step Luminescence ATP Detection Assay System) and luciferase readout measured on an Envision HTS multilabel plate reader (PerkinElmer) in luminescence mode according to established protocols. Raw data were imported into an ActivityBase database (IDBS, ID Business Solutions) and EC50 values calculated using the IDBS program ActivityBase XE. Table 2A and 2B show the IC50 values obtained in the above-outlined cell proliferation assay for exemplary compounds of the invention.

Some results are limits rather than exact numbers.

Broadly, the EC50 is the concentration giving half of the maximal effect. A higher EC50 goes with lower potency in that assay. The compound `Cc1ccc(S(=O)(=O)Nc2cc(-c3sccc3C#N)ccc2C)cc1` [Example 59, N-[5-(3-Cyano-thiophen-2-yl)-2-methyl-phenyl]-4-methyl-benzenesulfonamide] registered an EC50 (Homo sapiens) of 0.5 to 1 µM. Still for that read-out and setting: as for `COc1ccc(S(=O)(=O)Nc2cc(-c3ccc(C#N)cc3)ccc2C)cc1F` [Example 85, N-(4′-Cyano-4-methyl-biphenyl-3-yl)-3-fluoro-4-methoxy-benzenesulfonamide], the figure is below 0.5 µM. Take `COc1ccc(S(=O)(=O)Nc2cc(-c3ccc(OC(F)(F)F)cc3)ccc2C)cc1` [Example 83, 4-Methoxy-N-(4-methyl-4′-trifluoromethoxy-biphenyl-3-yl)-benzenesulfonamide]: the EC50 (Homo sapiens) fell in the range of 1 to 10 µM. On the same count and under the same terms, as for `CCOc1ccc(-c2ccc(C)c(NS(=O)(=O)c3ccc(C)cc3)c2)cn1` [Example 37, N-[5-(6-Ethoxy-pyridin-3-yl)-2-methyl-phenyl]-4-methyl-benzenesulfonamide], the figure is 1 to 10 µM; as for `COc1ccc(S(=O)(=O)Nc2cc(-c3cc(C)sc3C)ccc2C)cc1` [Example 13, N-[5-(2,5-Dimethyl-thiophen-3-yl)-2-methyl-phenyl]-4-methoxy-benzenesulfonamide], 1 to 10 µM. The same measure, in the same setting: to `Cc1ccc(S(=O)(=O)Nc2cc(-c3ccc(F)c(C)n3)ccc2C)cc1` [Example 46, N-[5-(5-Fluoro-6-methyl-pyridin-2-yl)-2-methyl-phenyl]-4-methyl-benzenesulfonamide] belongs 0.5 to 1 µM; to `Cc1ccc(S(=O)(=O)Nc2cc(-c3cccc(C#N)n3)ccc2C)cc1` [Example 52, N-[5-(6-Cyano-pyridin-2-yl)-2-methyl-phenyl]-4-methyl-benzenesulfonamide], 0.5 to 1 µM; to `Cc1ccc(S(=O)(=O)Nc2cc(-n3c(C)ccc3C)ccc2C)cc1` [Example 29, N-[5-(2,5-Dimethyl-pyrrol-1-yl)-2-methyl-phenyl]-4-methyl-benzenesulfonamide], 1 to 10 µM. For the setting “Homo sapiens”, `COc1ccc(-c2ccc(C)c(NS(=O)(=O)c3ccc(C)cc3)c2)cn1` [Example 18, N-[5-(6-Methoxy-pyridin-3-yl)-2-methyl-phenyl]-4-methyl-benzenesulfonamide] returned an EC50 of 1 to 10 µM. Still for that read-out and setting: to `Cc1ccc(-c2ccc(C#N)s2)cc1NS(=O)(=O)c1ccc(O)cc1` [Example 98, N-(5-(5-cyanothiophen-2-yl)-2-methylphenyl)-4-hydroxybenzenesulfonamide] belongs 0.5 to 1 µM; to `CC(=O)c1ccc(-c2ccc(C)c(NS(=O)(=O)c3ccc(C)cc3)c2)nc1` [Example 54, N-[5-(5-Acetyl-pyridin-2-yl)-2-methyl-phenyl]-4-methyl-benzenesulfonamide], 1 to 10 µM. Turning to `Cc1ccc(-c2ccc(C#N)cc2)cc1NS(=O)(=O)c1ccc(N(C)C)cc1` [Example 115, N-(4′-cyano-4-methylbiphenyl-3-yl)-4-(dimethylamino)benzenesulfonamide], the EC50 (Homo sapiens) was below 0.5 µM.

Turning to `COc1ccc(S(=O)(=O)Nc2cc(-n3cccc3C#N)ccc2C)cc1` [Example 41, N-[5-(2-Cyano-pyrrol-1-yl)-2-methyl-phenyl]-4-methoxy-benzenesulfonamide], the EC50 (Homo sapiens) is 0.5 to 1 µM. Still for that read-out and setting: as for `Cc1ccc(-c2ccc(C#N)cc2)cc1NS(=O)(=O)c1ccc(O)cc1` [Example 100, N-(4′-cyano-4-methylbiphenyl-3-yl)-4-hydroxybenzenesulfonamide], the figure is 1 to 10 µM; as for `Cc1ccc(S(=O)(=O)Nc2cc(-c3cccc(C)c3)ccc2C)cc1` [Example 7, N-(4,3′-Dimethyl-biphenyl-3-yl)-4-methyl-benzenesulfonamide], 0.5 to 1 µM. In turn, `COc1ccc(S(=O)(=O)Nc2cc(-n3ccc(C)n3)ccc2C)cc1` [Example 30, 4-Methoxy-N-[2-methyl-5-(3-methyl-pyrazol-1-yl)-phenyl]-benzenesulfonamide] had an EC50 (Homo sapiens) below 0.5 µM. On the same count and under the same terms, to `Cc1ccc(S(=O)(=O)Nc2cc(-c3ccc(C)cn3)ccc2C)cc1` [Example 32, 4-Methyl-N-[2-methyl-5-(5-methyl-pyridin-2-yl)-phenyl]-benzenesulfonamide] belongs 1 to 10 µM; to `COc1ccc(S(=O)(=O)Nc2cc(-c3ccc(C#N)s3)ccc2C)cc1F` [Example 92, N-[5-(5-Cyano-thiophen-2-yl)-2-methyl-phenyl]-3-fluoro-4-methoxy-benzenesulfonamide], below 0.5 µM; to `Cc1ccc(S(=O)(=O)Nc2cc(-c3ncccc3C(F)(F)F)ccc2C)cc1` [Example 27, 4-Methyl-N-[2-methyl-5-(3-trifluoromethyl-pyridin-2-yl)-phenyl]-benzenesulfonamide], 1 to 10 µM. On the same count and under the same terms, to `Cc1ccc(-c2ccc(C#N)s2)cc1NS(=O)(=O)c1ccc(OC(F)(F)F)cc1` [Example 79, N-[5-(5-Cyano-thiophen-2-yl)-2-methyl-phenyl]-4-trifluoromethoxy-benzenesulfonamide] belongs 1 to 10 µM; to `COc1ccc(S(=O)(=O)Nc2cc(-c3ccc(C#N)c(C#N)c3)ccc2C)cc1` [Example 65, N-(3′,4′-Dicyano-4-methyl-biphenyl-3-yl)-4-methoxy-benzenesulfonamide], below 0.5 µM; to `Cc1ccc(-c2ccc(C#N)s2)cc1NS(=O)(=O)c1ccc(C#N)cc1` [Example 116, 4-cyano-N-(5-(5-cyanothiophen-2-yl)-2-methylphenyl)benzenesulfonamide], 0.5 to 1 µM. For the setting “Homo sapiens”, `COc1cc(S(=O)(=O)Nc2cc(-c3ccc(C#N)s3)ccc2C)ccc1F` [Example 113, N-(5-(5-cyanothiophen-2-yl)-2-methylphenyl)-4-fluoro-3-methoxybenzenesulfonamide] yielded an EC50 of 0.5 to 1 µM. As to `COc1ccc(S(=O)(=O)Nc2cc(-c3ccc(SC)cc3)ccc2C)cc1` [Example 82, 4-Methoxy-N-(4-methyl-4′-methylsulfanyl-biphenyl-3-yl)-benzenesulfonamide], under “Homo sapiens”, the EC50 was in the range of 1 to 10 µM. Same read-out and setting: as for `COc1ccc(S(=O)(=O)Nc2cc(-c3ccc(C#N)c(OC)c3)ccc2C)cc1` [Example 89, N-(4′-Cyano-3′-methoxy-4-methyl-biphenyl-3-yl)-4-methoxy-benzenesulfonamide], the figure is below 0.5 µM; as for `Cc1ccc(S(=O)(=O)Nc2cc(-c3cc(C)ccn3)ccc2C)cc1` [Example 31, 4-Methyl-N-[2-methyl-5-(4-methyl-pyridin-2-yl)-phenyl]-benzenesulfonamide], 1 to 10 µM. `COc1ccc(-c2ccc(C)c(NS(=O)(=O)c3ccc(C)cc3)c2)nc1` [Example 44, N-[5-(5-Methoxy-pyridin-2-yl)-2-methyl-phenyl]-4-methyl-benzenesulfonamide]: under “Homo sapiens”, the EC50 was below 0.5 µM. Same read-out and setting: to `Cc1ccc(-c2ccc(C#N)cc2)cc1NS(=O)(=O)c1ccc(Cl)cc1` [Example 97, 4-chloro-N-(4′-cyano-4-methylbiphenyl-3-yl)benzenesulfonamide] belongs below 0.5 µM. For the setting “Homo sapiens”, `Cc1ccc(S(=O)(=O)Nc2cc(C)cc(-c3csc(C)c3)c2)cc1` [Example 94, 4-Methyl-N-[3-methyl-5-(5-methyl-thiophen-3-yl)-phenyl]-benzenesulfonamide] yielded a 50% effective concentration (EC50) below 0.5 µM. With “N-[5-(5-Cyano-pyridin-3-yl)-2-methyl-phenyl]-4-methoxy-benzenesulfonamide [Example 74]”, the 50% effective concentration (EC50) was below 0.5 µM. As to `Cc1ccc(S(=O)(=O)Nc2cc(-c3cncc(C#N)c3)ccc2C)cc1` [Example 34, N-[5-(5-Cyano-pyridin-3-yl)-2-methyl-phenyl]-4-methyl-benzenesulfonamide], for the setting “Homo sapiens”, the EC50 is below 0.5 µM. On the same count and under the same terms, to `Cc1ccc(S(=O)(=O)Nc2cc(-c3ccc([N+](=O)[O-])c(C)n3)ccc2C)cc1` [Example 111, 4-methyl-N-(2-methyl-5-(6-methyl-5-nitropyridin-2-yl)phenyl)benzenesulfonamide] belongs below 0.5 µM.

`Cc1ccc(S(=O)(=O)Nc2cc(-c3c(C)noc3C)ccc2C)cc1` [Example 48, N-[5-(3,5-Dimethyl-isoxazol-4-yl)-2-methyl-phenyl]-4-methyl-benzenesulfonamide] gave an EC50 (Homo sapiens) below 0.5 µM. Still for that read-out and setting: to `COc1ccc(S(=O)(=O)Nc2cc(-c3ccsc3)ccc2C)cc1` [Example 14, 4-Methoxy-N-(2-methyl-5-thiophen-3-yl-phenyl)-benzenesulfonamide] belongs below 0.5 µM; to `Cc1ccc(S(=O)(=O)Nc2cc(-c3ccc([N+](=O)[O-])o3)ccc2C)cc1` [Example 76, 4-Methyl-N-[2-methyl-5-(5-nitro-furan-2-yl)-phenyl]-benzenesulfonamide], below 0.5 µM. The same measure, in the same setting: as for `Cc1ccc(-c2ccc(C#N)cc2)cc1NS(=O)(=O)c1cccc(F)c1` [Example 104, N-(4′-cyano-4-methylbiphenyl-3-yl)-3-fluorobenzenesulfonamide], the figure is 1 to 10 µM.
